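Protocol summary: plate cells (96-well), add compound at 5 concentrations, incubate 48 h, interpolate endpoints linearly. Here, GI50 denotes the concentration required for 50% inhibition of growth. TGI: total growth inhibition.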
Legend:
Assay in all cases: NCI anticancer screen, dose series, 48 h
BT-549 breast = test system: BT-549 breast
HS 578T breast = test system: HS 578T breast
KM12 colon = test system: KM12 colon
NCI-H226 lung = test system: NCI-H226 lung
OVCAR-3 ovarian = test system: OVCAR-3 ovarian
SF-268 CNS = test system: SF-268 CNS
SF-295 CNS = test system: SF-295 CNS
SK-MEL-5 melanoma = test system: SK-MEL-5 melanoma
T-47D breast = test system: T-47D breast
UO-31 renal = test system: UO-31 renal

SMILES | GI50 (BT-549 breast) [µM] | TGI (BT-549 breast) [µM] | GI50 (HS 578T breast) [µM] | TGI (HS 578T breast) [µM] | GI50 (KM12 colon) [µM] | TGI (KM12 colon) [µM] | GI50 (NCI-H226 lung) [µM] | TGI (NCI-H226 lung) [µM] | GI50 (OVCAR-3 ovarian) [µM] | TGI (OVCAR-3 ovarian) [µM] | GI50 (SF-268 CNS) [µM] | TGI (SF-268 CNS) [µM] | GI50 (SF-295 CNS) [µM] | TGI (SF-295 CNS) [µM] | GI50 (SK-MEL-5 melanoma) [µM] | TGI (SK-MEL-5 melanoma) [µM] | GI50 (T-47D breast) [µM] | TGI (T-47D breast) [µM] | GI50 (UO-31 renal) [µM] | TGI (UO-31 renal) [µM]
CCn1c(-c2cc3c([nH]c4ccccc43)c(-c3cccc(O)c3)n2)n[nH]c1=S | 3.51 | 25.9 | 2.21 | 9.17 | 3.24 | 12.4 | 6.45 | 55.8 | 3.13 | 11.4 | 4.04 | 17.4 | 3.24 | 22.8 | 1.45 | 3.06 | 2.36 | 9.12 | 2.24 | 11.8
CCOC(=O)c1c(C)n(Cc2ccc(Cl)cc2Cl)c2c1cc1oc(=O)c(=O)n3cnc2c13 | 21.6 | 40.9 | 24.1 | 64.2 | 11.6 | 26 | 19.7 | 39.5 | 14.4 | 31.9 | 16.3 | 33.3 | 21.1 | 43.1 | 18 | 34.3 | 12.8 | 27.7 | 16.1 | 31.8
Cn1cccc1-c1cc(-c2ccccc2)[nH]c(=O)c1C#N | > 100 | > 100 | > 100 | > 100 | > 100 | > 100 | > 100 | > 100 | > 100 | > 100 | > 100 | > 100 | > 100 | > 100 | > 100 | > 100 | > 100 | > 100 | > 100 | > 100
Cc1cc(C)c2c(n1)sc1c(N)ncnc12 | 11.3 | > 25 | 11.4 | > 25 | > 22.3 | > 25 | 11.9 | > 25 | > 25 | > 25 | > 25 | > 25 | > 25 | > 25 | > 25 | > 25 | > 25 | > 25 | 12.9 | > 25
Cc1ccc2nc(-c3ccc(OCC(=O)N=Nc4c(O)[nH]c5ccccc45)cc3)[nH]c2c1 | 45.1 | > 100 | 11.4 | 42.3 | 3.55 | 13.2 | 11.2 | 56.1 | 1.97 | 3.79 | 3.54 | 14.4 | 19.4 | 49.7 | 11.9 | 56.1 | 2.02 | 4.88 | 82.4 | > 100
